Experimental data as given in patent US20250388572A1, “USE OF HPK1 INHIBITOR IN PREVENTION AND/OR TREATMENT OF HUMAN PATHOGEN INFECTION” (priority 2022, published 2025).
Read-outs that look alike come from different tables or passages of the source.

How the values were obtained:
[1] = cynomolgus macaque, microsomes, 1 h, 10 µM
Description: (§1) The procedure for identifying microsomal metabolites is as follows:
(§2) The compounds (test compounds and their numbers are shown below, among which compounds A1 and B1 are prepared by referring to the relevant method disclosed in CN110396087A) were weighed and dissolved into dimethyl sulfoxide to prepare a 20 mM solution. The compound stock solution was diluted with 50% acetonitrile in water (v/v) to a concentration of 1.0 mM as a working solution. Liver microsomes (20 mg/mL) were diluted to 1.27 mg/mL with 50 mM dipotassium hydrogen phosphate buffer as a liver microsome working solution. Reduced coenzyme was weighed and dissolved in 3307 μL of phosphate buffer (50 mM) to 5.0 mM as a reduced coenzyme working solution. For T=60 minutes samples, 4 μL of test working solution (1.0 mM) was added, followed by 316 μL of liver microsome working solution (1.27 mg/mL), and finally, 80 μL of reduced coenzyme working solution was added to start the reaction. For T=0 minutes samples, 316 μL of liver microsome working solution (1.27 mg/mL) was added and then 80 μL of reduced coenzyme working solution was added to start the reaction, without test solution incubation. After incubation at 37° C. for 60 minutes, 1200 μL of stop solution was added to stop the enzyme reaction. For T=0 minute samples, 4 μL of test working solution (1.0 mM) was added. The sample plate was placed on a vortexer and vortexed at 600 rpm for 5 minutes. Then, the sample plate was centrifuged at 4000 rpm for 10 minutes. The supernatant was removed, mixed, and dried at room temperature with nitrogen. The residue dried with nitrogen was redissolved in 300 μL of 10% acetonitrile (0.1% FA) solvent and then centrifuged at 4000 rpm for 15 minutes. The supernatant was transferred to a detection plate for mass spectrometry. Mass spectrometry was performed using LC/Q-Exactive plus.
(§3) 7-Ethoxycoumarin (10 μM) was selected as a positive control compound and operated in parallel with the compounds.

[2] = rat, microsomes, 1 h, 10 µM
Description: as §1, §2, §3

HSV virus = assay: Pharmacodynamic evaluation for viral keratitis (HSV) in mice; format: in vivo, C57 mice; conditions: for corneal perforation: right eye, 2 weeks, control: 2 eyes perforated from day 5; for clinical score at the highest peak of the disease (day 5): control group above 6
Description: Fifteen C57 mice (body weight: 22 g to 25 g), aged 8 weeks, were subjected to viral keratitis modeling in their right eyes. During the modeling process, a sterile 25G needle was used to make […]parallel scratches on the cornea of the right eye of all the animals. The scratch depth should be in the superficial zone and cannot penetrate the stroma layer. The scratches between each eyeball should be moderately uniform in depth and evenly distributed in density. Then, 4 μl of well-mixed HSV virus solution was dripped using a fiber syringe (titer: 2.0*10^6 PFU/ml) to complete the modeling. The day of modeling was set as DO. One day after modeling, the animals' right eyes were scored for viral keratitis, and 9 mice with uniform modeling were selected for the experiment. These 9 mice were randomly divided into 3 groups: control group, 1% A2 group and 0.2% A2 group, with 3 mice per group. According to the grouping, each animal's right eye surface was treated with the corresponding drugs, vehicle or 3024 eye drops with different concentrations, once every other day. On the day of administration, each eye was given 3 drops of 10 μl each time for 2 consecutive weeks. The degree of keratitis lesions was scored and analyzed on days 1, 3, 5, 7, 9, 11 and 14 after modeling.
Grading (i.e., scoring) was performed based on the three criteria of corneal ulcer area, depth and shape, and the total score was recorded by adding.
(1) Corneal ulcer area: Score 1=1% to 25%; Score 2=26% to 50%; Score 3=51% to 75%; and Score 4=76% to 100%.
(2) Lesion depth: Score 1=mild corneal opacity with clear iris texture; Score 2=off-white superficial corneal opacity with visible iris texture; Score 3=off-white deep corneal opacity with unclear iris texture; and Score 4=off-white full-layer dense corneal opacity with unclear anterior chamber.
(3) Corneal ulcer shape: Score 1=mild surface irregularity; Score 2=rough corneal surface with mild swelling; Score 3=severe edema with swelling descemet's membrane; and Score 4=corneal perforation or severe swelling descemet's membrane.
(4) If there is hypopyon and/or hyphema, the score is increased by 1.

[3] = human, microsomes, 1 h, 10 µM
Description: as §1, §2, §3

MHV-A59 virus = assay: Pharmacodynamic evaluation for MHV, low-dose virus group; format: in vivo, C57BL/6 mice; conditions: 4×10^5 PFU, day 8, control 19.19%
Description: The effect of A2 on the prevention and treatment of MHV was investigated.
Low-dose virus group: 21 male SPF grade C57BL/6 mice, aged 4 weeks, were divided into three groups: control group, precaution group and therapy group. These mice were anesthetized and then injected intrahepatically (i.h.) with 100 μL of DMEM containing 4×10^5 PFU MHV-A59 virus. The precaution group was given the first dose of A2 at 10 mg/kg 24 hours before the challenge, and the therapy group was given the first dose of A2 at 10 mg/kg 24 hours after the challenge, followed by daily continuous administration (both the precaution group and the therapy group were given a daily dose of 10 mg/kg). The infected mice were monitored daily. Blood samples were collected from the retro-orbital venous plexus on day 0 and day 4 after infection, and serum was extracted to detect alanine aminotransferase (ALT)/alanine aminotransferase (GPT) levels. On day 8 after infection, all groups of mice were sacrificed. Liver tissues were taken for virus titer determination and histological analysis, and spleen tissues were taken for virus specific T proliferation assay.

hPBMCs = assay: Pharmacodynamic evaluation for hPBMCs (IL-2 by ELISA); format: cell-based, human; conditions: 1 uM, 24 hours, CD3/CD28-activated hPBMCs
Description: The hPBMCs used in this experiment were purchased from Shanghai AoNeng Biotechnology Co., Ltd. CD3 antibody was pre-coated onto a 96-well plate for future use. Cells were seeded into the 96-well plate at 2×10^6/ml, with 200 μL per well. CD28 antibody was added for activation, and Compound A2 was added at a final concentration of 1 μM. The supernatant was collected after 24 hours of treatment. IL-2 levels were determined by ELISA, and the effects of A2 and CD3/CD28 on the activation of hPBMCs were compared.

[4] = mouse, microsomes, 1 h, 10 µM
Description: as §1, §2, §3

Q: Which results are given for `[2H]C([2H])([2H])N1CCC(n2cc(-c3cnc(N)c(OCc4cccc(C#CC(C)(C)O)c4)c3)cn2)CC1` [Compound A2, 4-(3-(((2-amino-5-(1-(1-trideuteriomethylpiperidin-4-yl)-1H-pyrazol-4-yl)pyridin-3-yl)oxy)methyl)phenyl)-2-methylbut-3-yn-2-ol]?
A: remaining percentage of the parent cores after 60 min [1]: 29.6%; remaining percentage of the parent cores after 60 min [2]: 52.1%; keratitis lesion scores vs model control group (HSV virus; 0.2% eye drops for 2 weeks, P<0.01): statistically different; corneal perforation (HSV virus; 0.2% eye drops): no corneal perforation; clinical score at the highest peak of the disease (day 5) (HSV virus; 0.2% eye drops): less than 6; corneal neovascularization scoring (HSV virus; 1% eye drops (suspension), control group above 1): below 0.5; keratitis lesion scores vs model control group (HSV virus; 1.0% eye drops for 2 weeks, P<0.05): statistically different; corneal perforation (HSV virus; 1% eye drops): no corneal perforation; clinical score at the highest peak of the disease (day 5) (HSV virus; 1% eye drops): less than 6; remaining percentage of the parent cores after 60 min [3]: 83.9%; average proliferation rate of spleen cells (virus specific T cell proliferation) (MHV-A59 virus; precaution group, 10 mg/kg daily from 24 hours before challenge): 28.18%; average proliferation rate of spleen cells (virus specific T cell proliferation) (MHV-A59 virus; therapy group, 10 mg/kg daily from 24 hours after challenge): 52.95%; IL-2 concentration ratio (stimulated by A2−unstimulated)/(stimulated−unstimulated) (hPBMCs): 5.89 fold; remaining percentage of the parent cores after 60 min [4]: 55.0%
